Reference: patent US5877185A, “Synergistic compositions useful as anti-tumor agents” (priority 1995, dated 1999)
“Also recorded” adds a separate entry of the source.

Assays:
[1] = weakly basic conditions; cited from earlier work
L-1210 cells = assay: time course of cell killing alone and with BSO, L-1210; type: cell-based, murine; settings: L-1210, 2-3 day period; 1 mM BSO
Experimental: (§1) Molt 4-cells were seeded at a density of 0.05×10^6 cell/ml in the recommended growth medium in the absence or the presence of drugs as indicated. Cells were incubated at 37° C. in a 5% CO2 atmosphere and proliferation was monitored in 14 hr. by cell counting in a hemacytometer. .smallcircle., untreated control; .circle-solid., treated with 4 μM 4-iodo-3-nitrobenzoic acid; .gradient., treated with 1 mM BSO; .tangle-soliddn., treated with 4 μM-iodo-3-nitrobenzoic acid and 1 mM BSO; .quadrature., treated with 4 μM 4-INO2 BA; .box-solid., treated with 1 mM BSO; .gradient., treated with 4 μM INO2 BA and 1 mM BSO. L-1210 cells were seeded at a density of 0.05×10^6 cells/ml either from untreated stock suspensions or from 24-hr. pretreated (0.2×10^6 cells/ml) suspensions. .smallcircle., untreated control; .circle-solid., treated with […] NOBA; .gradient., treated with 1 mM BSO; .tangle-soliddn., 24-hr pretreatment with 1 mM BSO then treated with 4 μM NOBA.
(§2) A time course of the cell killings by 4-iodo-3-nitrobenzoic acid, INO2 BA and NOBA, each alone and in combination with BSO was obtained. Molt-4 cells were seeded at a density of 0.05×10^6 cells/ml in the recommended growth medium in the absence or presence of drugs as indicated in FIG. 3. Drugs were added to the wells immediately after seeding from 10-40 mM stock solution in DMSO. BSO was added from a 100 mM aqueous stock solution. Cells were incubated at 37° C. in a 5% CO2 atmosphere and proliferation was monitored in 14 hours by cell counting in a hemacytometer.

[2] = tested on: SIV 22803 (AZT-resistant); assay: AZT-resistant SIV propagation (syncytia formation), SIV 22803; type: cell-based; settings: INO2 BA 0, BSO 0.05 mM
Experimental: (§3) CEM × 174 (3 × 10^5 /ml) were infected with equal doses o
(§4) SIVmac239 or virus isolates from SIVmac239infected rhesus macaques (MMU
(§5) 23686, 22803). Three days postinfection, INO2 BA concentrations
(§6) ranging from 0 to 300 μM with or without BSO were added, and incubated
(§7) for an additional 3 days. Cell cultures were then examined for syncytia
(§8) formation. The number of syncytia in cell cultures was counted in
(§9) arbitration fields under 40× magnification and scored as follows: […]

cellular GSH = cellular GSH levels under BSO; type: cell-based; settings: at the concentrations applied
Experimental: The role of cellular GSH was determined by the simultaneous addition of INO2 BA and BSO (an inhibitor of GSH biosynthesis, Meister, Pharmacology and Therapeutics 51:155-194 (1991), which at the concentrations applied diminished cellular GSH levels below 5-10% of controls.) The results are tabulated below in Table 3.

[3] = tested on: SIVmac239 or virus isolates in CEM ×174 cells; assay: SIV replication in CEM ×174 cells, SIV p27 core antigen assay; type: cell-based
From the text: Infected cell cultures described in FIG. 4 were used for determination of supernatant virus titers by SIV p27 core antigen assay as described in Example XIV. The ordinate represents p27 ELISA performed on day 10 of the assay and the abscissa represents the concentration of INO2 BA alone (rear rows in panels A, B and C) and in combination with BSO (front rows in panels A, B and C).
CEM ×174 cells (3×10^5 /ml) were infected with 3.75 TCID50 /ml (50% tissue culture infectious dosage per ml of cell suspension) stock solution of SIVmac239 or virus isolates from SIVmac239-infected rhesus macaques on day 0. Uniform infection of cells was ensured by the infection of one cell population only per virus preparation. Three days post-infection, the cells were distributed (500 μl/well) into individual wells of a 24-well plate. Fresh medium containing INO2 BA concentrations ranging from 0 to 300 μM and/or BSO concentrations ranging from 0 to 0.25 mM were added to establish final 1-ml reaction volumes, and the cultures were further incubated for 4 days. The wells were then replenished with fresh CEM ×174 cells (3×10^5 /ml), INO2 BA and/or BSO were re-added at the same concentrations as in the original incubates, and incubation was continued for an additional 3 days. This procedure intends to mimic conditions of in vivo chemotherapy. Cell viability and virus titers in the supernatant were determined on day 10 (3 days after the addition of new cells) by the tetrazolium (MTT) method of Hansen et al., J. Immunol. Methods 119:208-210 (1982) and by the SIV p27 and reverse transcriptase (RT) assays described by Chuang et al., FEBS Lett. 326:140-144 (1993), respectively.
SIVmac p27 core antigen levels were determined by an enzyme immunoassay provided by Coulter Corp. (Hialeah, Fla.). The assay was performed according to the manufacturer's specifications.

[4] = tested on: SIV 23686 (AZT-resistant); assay: AZT-resistant SIV propagation (syncytia formation), SIV 23686; type: cell-based; settings: INO2 BA 0, BSO 0.01 mM
Experimental: as §3, §4, §5, §6, §7, §8, §9

[5] = literature; cited from earlier work
Molt-4 cells = assay: time course of cell killing alone and with BSO, Molt-4; type: cell-based; settings: Molt-4, 2-3 day period; 4 μM drug, 1 mM BSO
Experimental: as §1, §2

tumor cells = settings: Hakam et al.; cited from earlier work
MDA 468 = assay: effect of nitroso- and nitro-compounds in mammary cancer cells (monolayer), MDA 468; type: cell-based, human; settings: drug exposure 24-48 hours
Experimental: II. I50 and LD100 Values for Nitroso- and Nitro-Compounds in (A) Mammary Cancer Cells (monolayer cultures) and in (B) L-1210 Murine Leukemia Cells (suspension culture).
Seeding was at 2×10^4 or 0.8×10^4 cells/cm^2, drugs were added 6-18 hours after seeding, and drug exposure time was 24-48 hours.

[6] = reduction by GSH and ascorbate in in vitro chemical tests; type: physicochemical
pADPRT [7] = assay: pADPRT enzyme inactivation; type: biochemical; settings: 2 hr at 25° C.
Experimental: FIG. 1 is a graph comparing the inactivation of pADPRT by NOBA and INOBA. pADPRT inactivation was performed in 20-μl volumes of buffer containing 50 mM Hepes (pH 7.4), 100 mM KCl, 0.5 mM EDTA, pADPRT (0.4 μg/μl) and different concentrations of inactivators. Inactivators were serially diluted in the above buffer from a 20 mM stock solution in DMF. The DMF concentration (2.5%) was kept constant in the inactivation mixes. After 2 hr. at 25° C., aliquots (3 μl) were removed for assay of enzyme activity in a volume of assay mix (200 μl) in which the inactivators were dilute enough not to act as inhibitors. The assay mix consisted of 100 mM Tris (pH 7.7), 14 mM 2-mercaptoethanol, 0.1 mM [^32 P]-NAD^+, 0.2 mg/ml coDNA and 0.1 mg/ml histones. The incorporated ^32 P, proportional to enzyme activity, is plotted as percent of the untreated sample.
NOBA and INOBA were assayed for their respective effects on pADPRT enzyme inactivation and pADPRT zinc content according to the methods described in Buki et al., FEBS Lett. 290:181-185 (1991) at pH 7.0. pADPRT inactivation was performed in 20-μl volumes of buffer containing 50 mM Hepes (pH 7.4), 100 mM KCl, 0.5 mM EDTA, pADPRT (0.4 μg/μl) and different concentrations of inactivators. Inactivators were serially diluted in the above buffer from a 20 mM stock solution in DMF. The DMF concentration (2.5%) was kept constant in the inactivation mixes. […]

pADPRT [8] = assay: pADPRT zinc content / zinc ejection; type: biochemical; settings: 25° C.
Experimental: FIG. 2A is a graph comparing the effects of NOBA and INOBA on the enzyme activity and zinc content of pADPRT. Inactivation was performed as described in Example III. In these experiments ^65 Zn^2+ -labeled pADPRT was used. The Zn^2+ content of pADPRT (upper panel) was determined as follows: two parallels of aliquots (4 μl) were pipetted into 500 μl of ice-cold washing solution (50 mM Tris, pH 7.7, 10 mM 2-mercaptoethanol and 0.5 mM EDTA) then filtered onto GF/C disks presoaked in washing solution (cold), quickly washed 4 times with 1 ml of ice-cold washing solution, dried, and the radioactivity determined. The protein-bound ^65 Zn^2+ is shown as percent of the untreated sample. Enzyme assays (lower panel) were performed as in FIG. 1.
For the release of Zn^2+ from transblotted pADPRT, the enzyme (3 μg per lane) was separated on SDS-PAGE, transblotted onto a nitrocellulose membrane, and renatured in the presence of ^65 ZnCl2. […] After incubation, 1 ml of the supernatant was counted for radioactivity, and the strips were washed 3 times with 2 ml of 50 mM Tris-HCl pH 7.4), 0.5 mM EDTA and 10 Mm 2-mercaptoethanol, and then dried and exposed to X-ray film. The intensity of the autoradiographic spots was quantitated by a scanner. […]

For `NC(=O)c1cccc(N(O)S(=O)(=O)CC(N)C(=O)O)c1` (centres unmarked), the “release of C-nitroso molecule” value [1] is given as “releases the C-nitroso molecule at weakly basic conditions”.

For `CCCCS(=N)(=O)CCC(N)C(=O)O` (racemic) [BSO, DL-buthionine sulfoximine, reference compound], the “effect on cell proliferation” value (L-1210 cells) was “no significant effect”, the Syncytia [2] was “++++ (over 30)” and the “cellular GSH level” value (cellular GSH) was 5-10 % of controls. The “effect on p27 formation / SIV replication” value ([3]; BSO alone, FIG. 5D) was “no effect”, the Syncytia [4] was “+++ (20-30)” and the “toxicity of BSO” value [5] was “very low; also recorded: non-toxicity”. For the same compound, the “effect on cell proliferation” value (Molt-4 cells) was “no significant effect”.

For `Nc1ccc2oc(=O)ccc2c1` [6-amino-1,2-benzopyrone], the anti-tumor effects (tumor cells) is listed as “anti-tumor effects”.

For `O=c1ccc2c(I)c([N+](=O)[O-])ccc2o1` [INO2 BP, 5-iodo-6-nitro-1,2-benzopyrone], the I50 (MDA 468) was 260 Namomoles/cm × 10^4 cells.

With `NC(=O)c1ccc(I)c(N=O)c1` [INOBA, 4-Iodo-3-Nitrosobenzamide] the “reduction to the corresponding hydroxyl amines” value [6] was “rapidly reduced”, the “effect of GSH depletion by BSO on inhibitory effect on SIV replication” value ([3]; with BSO, CEM ×174 cells) was “synergistically enhances” and the “inactivation of pADPRT, NOBA vs INOBA” value (pADPRT [7]) was “more effective inactivator of pADPRT”. The “time in which zinc ejection was complete” value (pADPRT [8]) was at most 2 h.
